Data published in PubChem BioAssay AID330 (DTP/NCI, 2004).
Several values for one entry are separate records, joined by “and”; a condition that tells them apart may be missing. Identical values can stand only once. Inconclusive results and toxic doses are left out. How the source made its calls: active means survival T/C of 150% or more; inactive means T/C below 125% in these data.

Tested on: P388 leukemia ip, CD2F1 mice, survival T/C
Assay: NCI In Vivo Anticancer Drug Screen. Data for tumor model P388 Leukemia (intraperitoneal) in CD2F1 (CDF1) mice
Conditions: endpoint: median survival time, higher = longer survival
In short: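 Mice carrying the transplanted tumor received test compound or vehicle. Survival was recorded in each group, and the value is the treated-group measurement divided by that of the vehicle-treated control group.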

[1] = dose: 50.0 mg/kg/injection, schedule: Q01DX005 (ip), vehicle: saline
[2] = dose: 100.0 mg/kg/injection, schedule: Q01DX005 (ip), vehicle: saline
[3] = dose: 200.0 mg/kg/injection, schedule: Q01DX005 (ip), vehicle: saline
[4] = dose: 50.0 mg/kg/injection, schedule: Q01DX009 (ip), vehicle: saline with Tween-80
[5] = dose: 100.0 mg/kg/injection, schedule: Q01DX009 (ip), vehicle: saline with Tween-80
[6] = dose: 60.0 mg/kg/injection, schedule: Q01DX005 (ip), vehicle: saline with Tween-80
[7] = dose: 120.0 mg/kg/injection, schedule: Q01DX005 (ip), vehicle: saline with Tween-80
[8] = dose: 240.0 mg/kg/injection, schedule: Q01DX005 (ip), vehicle: saline with Tween-80
[9] = dose: 100.0 mg/kg/injection, schedule: Q04DX003 (ip), vehicle: saline with Tween-80
[10] = dose: 200.0 mg/kg/injection, schedule: Q01DX009 (ip), vehicle: saline with Tween-80
[11] = dose: 200.0 mg/kg/injection, schedule: Q04DX003 (ip), vehicle: saline with Tween-80
[12] = dose: 400.0 mg/kg/injection, schedule: Q04DX003 (ip), vehicle: saline with Tween-80
[13] = dose: 12.5 mg/kg/injection, schedule: Q01DX009 (ip), vehicle: saline with Tween-80
[14] = dose: 50.0 mg/kg/injection, schedule: Q01DX005 (ip), vehicle: saline with Tween-80
[15] = dose: 100.0 mg/kg/injection, schedule: Q01DX005 (ip), vehicle: saline with Tween-80
[16] = dose: 200.0 mg/kg/injection, schedule: Q01DX005 (ip), vehicle: saline with Tween-80
[17] = dose: 50.0 mg/kg/injection, schedule: Q01DX009 (ip), vehicle: Klucel (hydroxypropylcellulose) (HPC)
[18] = dose: 100.0 mg/kg/injection, schedule: Q01DX009 (ip), vehicle: Klucel (hydroxypropylcellulose) (HPC)
[19] = dose: 200.0 mg/kg/injection, schedule: Q01DX009 (ip), vehicle: Klucel (hydroxypropylcellulose) (HPC)
[20] = dose: 100.0 mg/kg/injection, schedule: Q01DX001 (ip), vehicle: Klucel (hydroxypropylcellulose) (HPC)
[21] = dose: 200.0 mg/kg/injection, schedule: Q01DX001 (ip), vehicle: Klucel (hydroxypropylcellulose) (HPC)
[22] = dose: 400.0 mg/kg/injection, schedule: Q01DX001 (ip), vehicle: Klucel (hydroxypropylcellulose) (HPC)
[23] = dose: 50.0 mg/kg/injection, schedule: Q01DX005 (ip), vehicle: Klucel (hydroxypropylcellulose) (HPC)
[24] = dose: 100.0 mg/kg/injection, schedule: Q01DX005 (ip), vehicle: Klucel (hydroxypropylcellulose) (HPC)
[25] = dose: 200.0 mg/kg/injection, schedule: Q01DX005 (ip), vehicle: Klucel (hydroxypropylcellulose) (HPC)

Measured: T/C

O=C1c2ccccc2-c2c1c1ccccc1c(=O)n2Cc1ccco1
inactive: dose: 0.75 mg/kg/injection, schedule: Q01DX005 (ip), vehicle: saline with Tween-80 100 % of control | dose: 1.5 mg/kg/injection, schedule: Q01DX005 (ip), vehicle: saline with Tween-80 100 % of control | dose: 3.0 mg/kg/injection, schedule: Q01DX005 (ip), vehicle: saline with Tween-80 103 % of control

CSCCC(C(=O)O)N(CCC#N)CCC#N (centres undefined)
inactive: [1] 98 % of control | [2] 102 % of control | [3] 100 % of control

CCCCCCOCC(=O)O
inactive: [4] 102 % of control | [5] 91 % of control

Cc1[nH]c(=O)nc(CCc2ccccc2)c1-c1ccccc1
inactive: [6] 93 % of control | [7] 87 % of control

Cc1ncc(CO)c(CO)c1OCC(O)CN1CCN(c2ccc(F)cc2)CC1 (centres undefined)
inactive: [6] 99 % of control | [7] 98 % of control | [8] 104 % of control

NC1CONC1=O (centres undefined)
inactive: [5] 109 % of control | [9] 100 % of control | [10] 100 % of control | [11] 109 % of control | dose: 400.0 mg/kg/injection, schedule: Q01DX009 (ip), vehicle: saline with Tween-80 100 % of control | [12] 109 % of control

COC(=O)C1(O)OCC(O)C(O)C1O (centres undefined)
inactive: [1] 100 % of control | [2] 105 % of control | [3] 100 % of control

COc1ccc(/C=C(/C#N)c2ccc(Cl)cc2)cc1
inactive: dose: 25.0 mg/kg/injection, schedule: Q01DX009 (ip), vehicle: saline with Tween-80 92 % of control | [4] 92 % of control | [5] 95 % of control | [10] 93 % of control

O=C1CCSC(=S)N1c1cc(Cl)c(Cl)cc1Cl
inactive: dose: 50.0 mg/kg/injection, schedule: Q01DX009 (ip), vehicle: suspension in saline 106 % of control | dose: 100.0 mg/kg/injection, schedule: Q01DX009 (ip), vehicle: suspension in saline 108 % of control | dose: 200.0 mg/kg/injection, schedule: Q01DX009 (ip), vehicle: suspension in saline 109 % of control

O=C(Nc1ccc(-c2c[nH]c(=O)c([N+](=O)[O-])c2)cc1)OCc1ccccc1
inactive: dose: 6.25 mg/kg/injection, schedule: Q01DX009 (ip), vehicle: saline with Tween-80 95 % of control | [13] 95 % of control

O=C(NN1C(=O)CS(=O)(=O)C1c1ccc(Cl)cc1Cl)c1ccncc1 (centres undefined)
inactive: [14] 100 % of control | [15] 100 % of control | [16] 102 % of control

Brc1cc(-c2ccccc2)no1
inactive: [17] 104 % of control | [18] 111 % of control | [19] 109 % of control

CC(=O)/C(=C/c1ccc(OC2OC(CO)C(O)C(O)C2O)cc1)C(=O)CCN(C)C (centres undefined)
inactive: [1] 107 % of control | [2] 93 % of control | [3] 100 % of control

CN1CCc2cc(O)c(O)cc2C1Cc1ccc(O)c(O)c1 (centres undefined)
inactive: [4] 100 % of control | [5] 96 % of control

Oc1ccc(Cc2ccc(O)cc2)cc1
inactive: [9] 102 % of control | [11] 101 % of control | [12] 115 % of control

NC(=O)NC1CC2CCC1C2 (centres undefined)
inactive: [1] 101 % of control | [2] 101 % of control | [3] 105 % of control

CC1COC2(CCC(=CC(=O)O)CC2)O1 (centres undefined)
inactive: [20] 100 % of control | [21] 102 % of control | [22] 97 % of control

CC1N[P+]2(Nc3ccccc3O2)OC1=O (centres undefined)
inactive: [20] 103 % of control | [21] 103 % of control | [22] 106 % of control

CC1=CC(=O)[C@@H](O)[C@@]2(C)C1C[C@H]1OC(=O)[C@H](C/C=C(/C)C(C)C)[C@H]3C(C)C(O)C4(O)OC[C@@]31C42 (some centres undefined)
inactive: dose: 1.0 mg/kg/injection, schedule: Q01DX005 (ip), vehicle: saline with Tween-80 100 % of control | dose: 2.0 mg/kg/injection, schedule: Q01DX005 (ip), vehicle: saline with Tween-80 96 % of control | dose: 4.0 mg/kg/injection, schedule: Q01DX005 (ip), vehicle: saline with Tween-80 95 % of control | dose: 8.0 mg/kg/injection, schedule: Q01DX005 (ip), vehicle: saline with Tween-80 101 % of control

Cc1ccc2c(ccc3c[n+]4ccccc4c(C)c32)c1
inactive: dose: 2.2 mg/kg/injection, schedule: Q01DX009 (ip), vehicle: saline with Tween-80 122 % of control | dose: 3.3 mg/kg/injection, schedule: Q01DX009 (ip), vehicle: saline with Tween-80 114 % of control | dose: 5.0 mg/kg/injection, schedule: Q01DX009 (ip), vehicle: saline with Tween-80 122 % of control | dose: 6.25 mg/kg/injection, schedule: Q04DX003 (ip), vehicle: other 112 % of control | dose: 7.5 mg/kg/injection, schedule: Q01DX009 (ip), vehicle: saline with Tween-80 120 % of control | dose: 12.5 mg/kg/injection, schedule: Q04DX003 (ip), vehicle: other 112 % of control | dose: 25.0 mg/kg/injection, schedule: Q04DX003 (ip), vehicle: other 108 % of control

COc1cccc(C2OC3=C(Nc4ccc(Cl)cc4N3)C2=O)c1 (centres undefined)
inactive: [23] 93 % of control | [24] 104 % of control | [25] 90 % of control

COc1cc(OC)c(C2CC(C)(O)Oc3cc4c(cc32)OCO4)c(OC)c1 (centres undefined)
inactive: [6] 91 % of control | [7] 86 % of control | [8] 88 % of control

CN(C)CCNc1ccc([N+](=O)[O-])c2sc3ccccc3c(=O)c12
inactive: [13] 114 % of control | [5] 103 % of control and 89 % of control

C/C=C/C=c1/[nH]c(=O)/c(=C\c2ccccc2)[nH]c1=O
inactive: [17] 104 % of control | [18] 104 % of control | [19] 103 % of control

CC1CCCCN1C (centres undefined)
inactive: dose: 25.0 mg/kg/injection, schedule: Q01DX005 (ip), vehicle: saline with Tween-80 90 % of control | [14] 91 % of control | [15] 89 % of control

C[As+](C)(C)SCCO
inactive: dose: 100.0 mg/kg/injection, schedule: Q04DX002 (ip), vehicle: saline 98 % of control | dose: 200.0 mg/kg/injection, schedule: Q04DX002 (ip), vehicle: saline 95 % of control | dose: 400.0 mg/kg/injection, schedule: Q04DX002 (ip), vehicle: saline 95 % of control

CCCCCN(CCCCC)CC(=O)O[C@H]1C[C@H]2CC[C@@]1(C)C2(C)C
inactive: [14] 103 % of control | [15] 105 % of control | [16] 107 % of control

CC(C)CCCC(C)C1CCC2C3CCC4CC5(C)C(CC4(C)C3CCC12C)C(=O)C5(Cl)Cl (centres undefined)
inactive: [14] 96 % of control | [15] 100 % of control | [16] 99 % of control

COC(=O)[C@]1(C)CCC[C@@]2(C)[C@@H]3C[C@@H]4[C@H]5C[C@@]3(CC[C@@H]21)C[C@@]45C
inactive: dose: 25.0 mg/kg/injection, schedule: Q01DX005 (ip), vehicle: Klucel (hydroxypropylcellulose) (HPC) 100 % of control | [23] 97 % of control | [24] 97 % of control | [25] 95 % of control

CC1CCC2(C)CCC3(C)C(=CCC4C5(C)CCC(Oc6ccc(O)cc6)C(C)(C)C5CCC43C)C2C1C(=O)O (centres undefined)
inactive: dose: 0.5 mg/kg/injection, schedule: Q01DX005 (ip), vehicle: DMSO 101 % of control | dose: 1.0 mg/kg/injection, schedule: Q01DX005 (ip), vehicle: DMSO 100 % of control | dose: 2.0 mg/kg/injection, schedule: Q01DX005 (ip), vehicle: DMSO 101 % of control | dose: 4.0 mg/kg/injection, schedule: Q01DX005 (ip), vehicle: DMSO 100 % of control

O=C(O)C1CCCN1C(=O)OCc1ccccc1 (centres undefined)
inactive: [24] 87 % of control | [25] 89 % of control | dose: 400.0 mg/kg/injection, schedule: Q01DX005 (ip), vehicle: Klucel (hydroxypropylcellulose) (HPC) 91 % of control
